Results on 4 compounds are retold here after patent US12252714B2, “Halogenation of complex organic compounds” (REGENTS OF THE UNIVERSITY OF MICHIGAN, priority 2018, dated 2025).

Structures are written as SMILES.

One experiment deals with MalA′. In words: Co-crystallization with MalA′. The class given is binding, Malbranchea graminicola. The protocol:
Crystallization conditions. […] The purified MalA′ was dialyzed overnight into a 20 mM HEPES pH 7 buffer with 200 mM NaCl or 300 mM NaCl to remove glycerol, and then supplemented with an equimolar quantity of FAD. […] For active site complexes with compounds 2, 3, and 4, MalA′ was pre-incubated with a four-fold molar excess of substrate. Crystals were grown by vapor diffusion from 1:2 mixtures of 5 mg/mL MalA′ pre-incubated with compound 2, 3 or 4 and a well solution containing 2 M (NH4)2SO4, 0.2 M Li2SO4, 5 mM CdCl2, and 0.1 M Bis-Tris pH 5.5. Crystals were cryoprotected in well solution augmented with 10% glycerol and flash-cooled in liquid nitrogen.

The next experiment deals with T1, MalA (Malbranchea aurantiaca, UniProt L0E155).
T1 construct: The malA coding region was amplified from the cDNA template by PCR; made in house; host or cells: E. coli BL21 (DE3) with pGro7 (GroEL/GroES) chaperone plasmid
T1 sequence (L0E155 whole entry): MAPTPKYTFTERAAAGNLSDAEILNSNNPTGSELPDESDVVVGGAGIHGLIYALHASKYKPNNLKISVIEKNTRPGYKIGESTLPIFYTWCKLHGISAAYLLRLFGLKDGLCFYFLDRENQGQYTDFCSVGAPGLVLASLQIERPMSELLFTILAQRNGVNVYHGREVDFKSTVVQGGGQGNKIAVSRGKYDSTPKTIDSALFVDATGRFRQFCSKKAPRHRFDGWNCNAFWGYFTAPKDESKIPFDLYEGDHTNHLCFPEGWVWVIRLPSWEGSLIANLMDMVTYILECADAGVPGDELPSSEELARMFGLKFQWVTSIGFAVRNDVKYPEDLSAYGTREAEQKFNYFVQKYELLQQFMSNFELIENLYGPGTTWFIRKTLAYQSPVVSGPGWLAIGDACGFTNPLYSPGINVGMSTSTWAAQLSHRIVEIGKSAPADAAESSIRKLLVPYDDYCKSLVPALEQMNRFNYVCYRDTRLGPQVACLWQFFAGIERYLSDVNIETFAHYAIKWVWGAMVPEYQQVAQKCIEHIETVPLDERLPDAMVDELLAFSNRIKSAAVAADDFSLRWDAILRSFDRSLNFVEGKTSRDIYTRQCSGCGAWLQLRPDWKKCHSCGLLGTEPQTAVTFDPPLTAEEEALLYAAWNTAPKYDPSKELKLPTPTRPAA
In words: Michaelis-Menten kinetics of MalA chlorination reactions. The class given is biochemical. The protocol: Substrates malbrancheamide B (compound 3) and isomalbrancheamide B (compound 4) to product malbrancheamide (compound 1). Reactions were set up in a total volume of 250 μL with the following components: 1.1 μM MalA, 44 μM HpaC flavin reductase, 100 μM FAD, 50 mM NaCl, 3.6 mM NADH, and a variety of substrate concentrations ranging from 1 μM to 60 μM. Reactions were quenched with methanol by removing 50 μL at each time point (2, 5, 10, 15 minutes). Reactions were analyzed on a Schimadzu HPLC with the following LC time program: 40% acetonitrile for 1 minute, gradient over 6 minutes from 40-85% acetonitrile, 85% acetonitrile for 1 minute, gradient over 1 minute to 40% acetonitrile, re-equilibration to 40% acetonitrile for 3 minutes. The absorbance was measured at 240 nm and the mobile phase consisted of water and acetonitrile. A Phenomenex Lux cellulose-3, cellulose Tris (4-methylbenzoate) 250×4.6 mm column was used for separation. GraphPad Prism (Version 6.01) software was used to plot the initial velocities against the substrate concentration and to determine the kinetic constants kcat and Km.
Substrate premalbrancheamide (compound 2) to products isomalbrancheamide B (compound 4) and malbrancheamide B (compound 3). Reactions were set up in a total volume of 250 μL with the following components: 1.8 μM MalA, 44 μM HpaC, 100 μM FAD, 50 mM NaCl, 3.6 mM NADH, and a variety of substrate concentrations ranging from 5 μM to 80 μM. Reactions were quenched with 100 μL methanol by removing 50 μL at each time point (2, 5, 7, 10 minutes). Reactions were analyzed on a Schimadzu HPLC with the following LC time program: 34% acetonitrile for 1 minute, gradient over 11 minutes to 62% acetonitrile, 62% acetonitrile for 30 seconds, gradient over 30 seconds to 34% acetonitrile, re-equilibration to 34% for 3 minutes. The absorbance was measured at 240 nm and the mobile phase consisted of water and acetonitrile. A Phenomenex Lux cellulose-3 Tris (4-methylbenzoate) 250×4.6 mm column was used for separation.
Michaelis-Menten kinetic parameters were determined for the natural chlorination reactions of MalA. […] These catalytic efficiencies are fairly high compared to those of the eukaryotic FDH Rdc2, which are 2.93 min−1 mM−1 for the initial chlorination reaction and 0.11 min−1 mM−1 for the second chlorination reaction.^4

Where [1] appears, read: chlorination, compound 2 to compound 3.
Where [2] appears, read: chlorination, compound 2 to compound 4.
[3] abbreviates: second chlorination, to compound 1.

As for `CC1(C)c2[nH]c3cc(Cl)c(Cl)cc3c2C[C@@]23CN4CCC[C@]4(C[C@@H]12)C(=O)N3` [compound 1, malbrancheamide], the “binding in MalA′ crystals” value in the experiment on MalA′ is on record as “did not bind in crystals”.
In general, Km refers to the concentration of substrate that gives half-maximal velocity. The kcat is the number of substrate molecules converted per active site and unit of time at saturation. With `CC1(C)c2[nH]c3ccccc3c2CC23CN4CCCC4(CC21)C(=O)N3` (stereo not drawn) [compound 2, premalbrancheamide], the Michaelis constant (Km) on MalA (setting [1]) came to 7 µM; on MalA (setting [2]), 7.5 µM. In addition, the kcat at MalA (setting [1]) is 0.08 min⁻¹; at MalA (setting [2]), 0.09 min⁻¹.
With `CC1(C)c2[nH]c3cc(Cl)ccc3c2C[C@@]23CN4CCC[C@]4(C[C@@H]12)C(=O)N3` [compound 3, malbrancheamide B], on MalA (setting [3]), the Km amounted to 4.4 µM and the catalytic constant (kcat) was determined as 0.12 min⁻¹.
Take `CC1(C)c2[nH]c3ccc(Cl)cc3c2C[C@@]23CN4CCC[C@]4(C[C@@H]12)C(=O)N3` [compound 4, isomalbrancheamide B]: on MalA (setting [3]), the Km worked out at 4 µM and the kcat is 0.12 min⁻¹.
